According to patent EP4714949A1, “NOVEL COMPOUNDS CAPABLE OF INDUCING OSTEOGENIC DIFFERENTIATION” (AJOU UNIVERSITY INDUSTRY-ACADEMIC COOPERATION FOUNDATION, priority 2023, dated 2024):

How the values were obtained:
[1] = target: T1, MDM2 (Homo sapiens, UniProt Q00987); assay: MDM2 protein degradation by Western blot (SDS-PAGE) in hDPSCs; assay type: cell-based; details: FIG. 2, selection among initially selected compounds
T1 construct: evaluate the intracellular MDM2 protein degradation capacity; endogenous in cells; host or cells: human dental pulp stem cells (hDPSCs)
Procedure: Human dental pulp stem cell lines (hDPSCs) were treated with 14 types of synthesized MDM2-PROTACs (10 µM) for 1 hour and Western blot analysis using SDS-PAGE gel was performed to evaluate the intracellular MDM2 protein degradation capacity.

[2] = tested on: p53; assay: p53 activation in hDPSCs (FIG. 2, compound and concentration selection); assay type: cell-based, Human

T1 sequence (Q00987 whole entry): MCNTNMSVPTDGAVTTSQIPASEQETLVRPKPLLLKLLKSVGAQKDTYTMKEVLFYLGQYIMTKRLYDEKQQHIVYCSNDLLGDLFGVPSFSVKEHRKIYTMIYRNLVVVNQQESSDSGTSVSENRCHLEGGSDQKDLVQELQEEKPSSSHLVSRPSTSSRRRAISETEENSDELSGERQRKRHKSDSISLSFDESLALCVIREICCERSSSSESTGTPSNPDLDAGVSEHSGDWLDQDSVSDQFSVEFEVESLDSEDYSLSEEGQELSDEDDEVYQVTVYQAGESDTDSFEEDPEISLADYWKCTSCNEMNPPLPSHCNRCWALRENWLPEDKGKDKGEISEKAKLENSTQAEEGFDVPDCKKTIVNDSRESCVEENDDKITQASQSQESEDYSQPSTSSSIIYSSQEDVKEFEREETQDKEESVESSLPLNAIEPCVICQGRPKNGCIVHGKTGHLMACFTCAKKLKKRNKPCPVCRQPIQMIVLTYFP

Structure (SMILES)	MDM2 degradation [1]	p53 activation [2]
COc1ccc(C2=NC(c3ccc(Cl)cc3)C(c3ccc(Cl)cc3)N2C(=O)N2CCN(CC(=O)NCCCCCCCC#Cc3cccc4c3C(=O)N(C3CCC(=O)NC3=O)C4=O)C(=O)C2)c(OC(C)C)c1 (stereo not drawn) [Compound 16b, 2-(4-(cis-4,5-bis(4-chlorophenyl)-2-(2-isopropoxy-4-methoxyphenyl)-4,5-dihydro-1H-imidazole-1-carbonyl)-2-oxopiperazin-1-yl)-N-(9-(2-(2,6-dioxopiperidin-3-yl)-1,3-dioxoisoindolin-4-yl)non-8-yn-1-yl) acetamide]	effectively degrade MDM2	activate p53
COc1ccc(C2=NC(c3ccc(Cl)cc3)C(c3ccc(Cl)cc3)N2C(=O)N2CCN(CC(=O)NCCCCCCCCOc3cccc4c3C(=O)N(C3CCC(=O)NC3=O)C4=O)C(=O)C2)c(OC(C)C)c1 (stereo not drawn) [Compound 6b, 2-(4-(cis-4,5-bis(4-chlorophenyl)-2-(2-isopropoxy-4-methoxyphenyl)-4,5-dihydro-1H-imidazole-1-carbonyl)-2-oxopiperazin-1-yl)-N-(8-((2-(2,6-dioxoopiperidin-3-yl)-1,3-dioxoisoindolin-4-yl)oxy)octyl)acetamide]	effectively degrade MDM2	activate p53
